{"source": "patent US20240075140A1", "about": "“ENGINEERED NK CELLS AND METHODS OF TREATING CANCER” (American Gene Technologies Intemational Inc, priority 2021, published 2024)", "test_system": "Daudi cells", "test": "CD107a response of Mitomycin C treated S76 to Daudi cells", "type": "cell-based", "conditions": "various concentrations, 1 or 2 hours; Daudi 2:1, 4 hours", "method": "Cloned S76 cells were treated with MMC at various concentration for 1 or 2 hours. After MMC treatment, S76 was mixed with Daudi cells at a 2:1 ratio for 4 hours. CD107a was measured by flow cytometry. For detecting CD107a, cells were washed, resuspended in 50-100 μl of staining buffer, and stained with mouse anti-human Vδ2-PE clone B6 and mouse anti-human CD107a-APC clone H4A3. Cells were washed with staining buffer and resuspended. Data for at least 1×10^4 lymphocytes (gated on the basis of forward- and side-scatter profiles) were acquired from each sample on a FACSCalibur flow cytometer (BD Biosciences). All samples were analyzed using FlowJo software.", "data": [{"smiles": "CO[C@@]12[C@H](COC(N)=O)C3=C(C(=O)C(C)=C(N)C3=O)N1C[C@@H]1N[C@@H]12", "note": "[MMC, Mitomycin C]", "values": [{"measurement": "effect of Mitomycin C treatment on function of clone S76 (CD107a response to Daudi)", "value": "did not significantly impair the function"}]}]}
